# Experimental data: the supplement of paper PMC11208160
# Experiment: recombinant UMI read abundance after kanamycin selection (control-corrected) (log10(CPM+1)); higher = more efficient recombination; extreme values may be limits of the assay; sequences stand for … in AGTGCAGAGAAAATCGGCCAGTTTTCTCTGCCTGCAGTCCGCATGCCGTGGGACCCCTTGGGTTCTAACCTGTTGCCTAGATTTATGCAGCGGACTGCCTTTCTCCCAAAGTGATAAACCGG…AGGTTGGTTTCACT; site = the 11-nt donor
# Procedure, shortened: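 In Escherichia coli, a pool of donor and donor-binding-loop pairs, each with a 12-nt UMI, was tested for the IS621 bridge recombinase. Plating was on IPTG (0.07 mM) plus kanamycin, or without selection, in two replicates. Recombinant UMIs were amplified by PCR across the donor–target junction and sequenced, and counts were reported as log10(CPM+1) after averaging and control-derived scaling.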
# 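Further: IS621 bridge recombinase in Escherichia coli cells against a fixed T5 target plasmid.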
row,Sequence,recombinant UMI read abundance (log10)
1,CTGCTAACATGGACCGGTTTTCCCGGTAATCCGTATTTGGA (site CTCCTAACTTC),0.394
2,CTGCTAACATGGACCGGTTTTCCCGGTAATCCGTATTTGGA (site CTGCTAACTTC),1.62
3,CTGCTAACATGGACCGGTTTTCCCGGTAATCCGTATTTGGA (site CTTCTAACTTC),0.563
4,CTGCTCACATGGACCGGTTTTCCCGGTAATCCGTATTTGCC (site CTGCTCACTGG),2.59
5,CTGGAGTCATGGACCGGTTTTCCCGGTAATCCGTATTTGCC (site CAGGAGTCTGG),2.88
6,CTGGAGTCATGGACCGGTTTTCCCGGTAATCCGTATTTGCC (site CCGGAGTCTGG),1.26
7,CTGGAGTCATGGACCGGTTTTCCCGGTAATCCGTATTTGCC (site CGGGAGTCTGG),0
8,CTGGAGTCATGGACCGGTTTTCCCGGTAATCCGTATTTGCC (site CTGGAGTCTGG),2.84
9,CTGGCATCATGGACCGGTTTTCCCGGTAATCCGTATTTGAC (site CTAGTATCTGT),0
10,CTGGCATCATGGACCGGTTTTCCCGGTAATCCGTATTTGAC (site CTGGCATCTGT),1.53
11,CTGGCTCCATGGACCGGTTTTCCCGGTAATCCGTATTTGGC (site CTGGCTCCTGC),0.763
12,CTGGCTGCATGGACCGGTTTTCCCGGTAATCCGTATTTGGT (site CTGGCTGCTAC),1.7
13,CTGGGCACATGGACCGGTTTTCCCGGTAATCCGTATTTGAG (site CTGGGCACTCT),0.567
14,CTGGTAGCATGGACCGGTTTTCCCGGTAATCCGTATTTGAC (site CTAGTATCTGT),1.68
15,CTGGTAGCATGGACCGGTTTTCCCGGTAATCCGTATTTGAC (site CTGGTAGCTGT),2.85
16,CTGGTGGCATGGACCGGTTTTCCCGGTAATCCGTATTTGTT (site CTGGTGGCTAA),0.723
17,CTGGTTTCATGGACCGGTTTTCCCGGTAATCCGTATTTGAC (site CTAGTATCTGT),0.542
18,CTGGTTTCATGGACCGGTTTTCCCGGTAATCCGTATTTGAC (site CTGGTTTCTGT),1.87
19,CTGTAATCATGGACCGGTTTTCCCGGTAATCCGTATTTGTG (site CTGTAATCTCA),2.52
20,CTGTACACATGGACCGGTTTTCCCGGTAATCCGTATTTGCT (site CTATACACTAG),2.55
21,CTGTACACATGGACCGGTTTTCCCGGTAATCCGTATTTGCT (site CTCTACACTAG),1.52
22,CTGTACACATGGACCGGTTTTCCCGGTAATCCGTATTTGCT (site CTGTACACTAG),2.51
23,CTGTACACATGGACCGGTTTTCCCGGTAATCCGTATTTGCT (site CTTTACACTAG),0.828
24,CTGTACGCATGGACCGGTTTTCCCGGTAATCCGTATTTGTC (site CTGTACGCTGA),2.56
25,CTGTCGCCATGGACCGGTTTTCCCGGTAATCCGTATTTGCA (site CTGTCGCCTTG),0
26,CTGTCGTCATGGACCGGTTTTCCCGGTAATCCGTATTTGTG (site CTGTCGTCTCA),0.831
27,CTGTGACCATGGACCGGTTTTCCCGGTAATCCGTATTTGTA (site CTGTGACCTTA),0.00405
28,CTGTGCCCATGGACCGGTTTTCCCGGTAATCCGTATTTGAG (site CTGTGCCCTCT),0.0219
29,CTGTGCCCATGGACCGGTTTTCCCGGTAATCCGTATTTGCC (site CTGTGCCCTGG),1.34
